Earlier results as cited in patent publication US6391860B1, “Method for preparation and use of paste formed by controlled reaction of sucralfate with hydrochloric acid” (priority 1999, dated 2002).

- solubility in most polar and non-polar solvents: insoluble
- solubility in strong acid and strong alkali: soluble
Substance: aluminum hydroxide salt of sucrose octasulfate [Sucralfate]
